In PubChem BioAssay (NCI):
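Assay format: 96-well plates, 48-hour exposure. TGI marks complete inhibition of growth.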

Assays:
Experiment in all cases: NCI tumour cell line growth inhibition, 48 h
TK-10 renal = tested on: TK-10 renal
M14 melanoma = tested on: M14 melanoma
U251 CNS = tested on: U251 CNS
SF-268 CNS = tested on: SF-268 CNS
SK-OV-3 ovarian = tested on: SK-OV-3 ovarian
SNB-19 CNS = tested on: SNB-19 CNS
NCI-H460 lung = tested on: NCI-H460 lung
CCRF-CEM leukemia = tested on: CCRF-CEM leukemia
OVCAR-8 ovarian = tested on: OVCAR-8 ovarian
DMS 114 small cell lung = tested on: DMS 114 small cell lung
DLD-1 colon = tested on: DLD-1 colon
MOLT-4 leukemia = tested on: MOLT-4 leukemia
SK-MEL-2 melanoma = tested on: SK-MEL-2 melanoma
UACC-62 melanoma = tested on: UACC-62 melanoma
HCT-15 colon = tested on: HCT-15 colon
786-0 renal = tested on: 786-0 renal
HT29 colon = tested on: HT29 colon
OVCAR-4 ovarian = tested on: OVCAR-4 ovarian
NCI-H23 lung = tested on: NCI-H23 lung
HOP-62 NSCLC = tested on: HOP-62 NSCLC
CAKI-1 renal = tested on: CAKI-1 renal
DMS 273 small cell lung = tested on: DMS 273 small cell lung
RXF 393 renal = tested on: RXF 393 renal
HOP-92 NSCLC = tested on: HOP-92 NSCLC
SF-539 CNS = tested on: SF-539 CNS
HCT-116 colon = tested on: HCT-116 colon
A498 renal = tested on: A498 renal
XF 498 CNS = tested on: XF 498 CNS
SK-MEL-28 melanoma = tested on: SK-MEL-28 melanoma
A549 NSCLC = tested on: A549 NSCLC
HL-60(TB) leukemia = tested on: HL-60(TB) leukemia
IGROV1 ovarian = tested on: IGROV1 ovarian
KM12 colon = tested on: KM12 colon
MALME-3M melanoma = tested on: MALME-3M melanoma
K-562 leukemia = tested on: K-562 leukemia
SN12C renal = tested on: SN12C renal
NCI-H226 lung = tested on: NCI-H226 lung
ACHN renal = tested on: ACHN renal
SF-295 CNS = tested on: SF-295 CNS
NCI-H522 lung = tested on: NCI-H522 lung
SNB-75 CNS = tested on: SNB-75 CNS
SK-MEL-5 melanoma = tested on: SK-MEL-5 melanoma
KM20L2 colon = tested on: KM20L2 colon
OVCAR-5 ovarian = tested on: OVCAR-5 ovarian
EKVX NSCLC = tested on: EKVX NSCLC
LXFL 529 NSCLC = tested on: LXFL 529 NSCLC
HCC-2998 colon = tested on: HCC-2998 colon
UO-31 renal = tested on: UO-31 renal
RPMI-8226 leukemia = tested on: RPMI-8226 leukemia
COLO 205 colon = tested on: COLO 205 colon
UACC-257 melanoma = tested on: UACC-257 melanoma
LOX IMVI melanoma = tested on: LOX IMVI melanoma
SR leukemia = tested on: SR leukemia
HOP-18 NSCLC = tested on: HOP-18 NSCLC
SNB-78 CNS = tested on: SNB-78 CNS
OVCAR-3 ovarian = tested on: OVCAR-3 ovarian
M19-MEL melanoma = tested on: M19-MEL melanoma
SW-620 colon = tested on: SW-620 colon

N#Cc1ccc(Oc2ccccc2)cc1C#N
TGI (TK-10 renal): > 100 µM | TGI (M14 melanoma): > 100 µM | TGI (U251 CNS): > 100 µM | TGI (SF-268 CNS): > 100 µM | TGI (SK-OV-3 ovarian): > 100 µM | TGI (SNB-19 CNS): > 100 µM | TGI (NCI-H460 lung): > 100 µM | TGI (CCRF-CEM leukemia): 56.9 µM | TGI (OVCAR-8 ovarian): > 100 µM | TGI (DMS 114 small cell lung): 59.1 µM | TGI (DLD-1 colon): > 100 µM | TGI (MOLT-4 leukemia): > 100 µM | TGI (SK-MEL-2 melanoma): > 100 µM | TGI (UACC-62 melanoma): > 100 µM | TGI (HCT-15 colon): 43.3 µM | TGI (786-0 renal): > 100 µM | TGI (HT29 colon): > 100 µM | TGI (OVCAR-4 ovarian): > 100 µM | TGI (NCI-H23 lung): > 100 µM | TGI (HOP-62 NSCLC): > 100 µM | TGI (CAKI-1 renal): > 100 µM | TGI (DMS 273 small cell lung): 34.5 µM | TGI (RXF 393 renal): > 100 µM | TGI (HOP-92 NSCLC): > 100 µM | TGI (SF-539 CNS): > 100 µM | TGI (HCT-116 colon): > 100 µM | TGI (A498 renal): > 100 µM | TGI (XF 498 CNS): > 100 µM | TGI (SK-MEL-28 melanoma): > 100 µM | TGI (A549 NSCLC): > 100 µM | TGI (HL-60(TB) leukemia): > 100 µM | TGI (IGROV1 ovarian): > 100 µM | TGI (KM12 colon): > 100 µM | TGI (MALME-3M melanoma): > 100 µM | TGI (K-562 leukemia): > 100 µM | TGI (SN12C renal): > 100 µM | TGI (NCI-H226 lung): > 100 µM | TGI (ACHN renal): > 100 µM | TGI (SF-295 CNS): > 100 µM | TGI (NCI-H522 lung): 57.2 µM | TGI (SNB-75 CNS): > 100 µM | TGI (SK-MEL-5 melanoma): > 100 µM | TGI (KM20L2 colon): > 100 µM | TGI (OVCAR-5 ovarian): > 100 µM | TGI (EKVX NSCLC): > 100 µM | TGI (LXFL 529 NSCLC): > 100 µM | TGI (HCC-2998 colon): > 100 µM | TGI (UO-31 renal): > 100 µM | TGI (RPMI-8226 leukemia): > 100 µM | TGI (COLO 205 colon): 68.6 µM | TGI (UACC-257 melanoma): > 100 µM | TGI (LOX IMVI melanoma): 38.7 µM | TGI (SR leukemia): 49.7 µM | TGI (HOP-18 NSCLC): > 100 µM | TGI (SNB-78 CNS): > 100 µM | TGI (OVCAR-3 ovarian): > 100 µM | TGI (M19-MEL melanoma): > 100 µM

CSc1ccc(NC(=O)C2c3[nH]c4ccccc4c3C3CCC(C(C)(C)C)CC3C2C(=O)O)cc1 (configuration not stated)
TGI (M14 melanoma): 44.6 µM | TGI (U251 CNS): 31.8 µM | TGI (SF-268 CNS): 47 µM | TGI (SK-OV-3 ovarian): 37.3 µM | TGI (SNB-19 CNS): 80.2 µM | TGI (CCRF-CEM leukemia): 25.8 µM | TGI (OVCAR-8 ovarian): 28.8 µM | TGI (DMS 114 small cell lung): 63.4 µM | TGI (DLD-1 colon): 54.6 µM | TGI (MOLT-4 leukemia): 31.4 µM | TGI (UACC-62 melanoma): 67.1 µM | TGI (HCT-15 colon): > 100 µM | TGI (786-0 renal): 32.2 µM | TGI (HT29 colon): 39.1 µM | TGI (OVCAR-4 ovarian): 50.1 µM | TGI (NCI-H23 lung): 58.7 µM | TGI (HOP-62 NSCLC): 32.1 µM | TGI (DMS 273 small cell lung): 30 µM | TGI (RXF 393 renal): 49.5 µM | TGI (HOP-92 NSCLC): 53 µM | TGI (SF-539 CNS): 37.7 µM | TGI (HCT-116 colon): 27.5 µM | TGI (A498 renal): 35.4 µM | TGI (XF 498 CNS): 39.7 µM | TGI (SW-620 colon): 32.1 µM | TGI (SK-MEL-28 melanoma): 60.5 µM | TGI (A549 NSCLC): 30.9 µM | TGI (HL-60(TB) leukemia): 23 µM | TGI (IGROV1 ovarian): 51.8 µM | TGI (MALME-3M melanoma): 46.8 µM | TGI (K-562 leukemia): > 100 µM | TGI (SN12C renal): 36.8 µM | TGI (NCI-H226 lung): 33.1 µM | TGI (ACHN renal): 32 µM | TGI (SF-295 CNS): 38.5 µM | TGI (NCI-H522 lung): 37.4 µM | TGI (SNB-75 CNS): 37.9 µM | TGI (SK-MEL-5 melanoma): 66 µM | TGI (KM20L2 colon): 32.6 µM | TGI (EKVX NSCLC): 85.3 µM | TGI (LXFL 529 NSCLC): 31.8 µM | TGI (HCC-2998 colon): > 100 µM | TGI (UO-31 renal): 61.6 µM | TGI (RPMI-8226 leukemia): 58.6 µM | TGI (COLO 205 colon): 32 µM | TGI (UACC-257 melanoma): > 100 µM | TGI (SR leukemia): 25.5 µM | TGI (HOP-18 NSCLC): 35.9 µM | TGI (SNB-78 CNS): 53.2 µM | TGI (M19-MEL melanoma): 57.3 µM
